Experimental data published in patent US8143250B2, “6-7,dialkoxy quinazoline derivatives useful for treatment of cancer related disorders” (priority 2008, dated 2012).
“Also recorded” adds a separate entry of the source. Counter-ions that a name gives are not always drawn. Like-named read-outs stand apart in the source and are kept apart here.

Tests used:
male and female mice = test: Acute toxicity (LD0, LD50) in mice; format: in vivo; conditions: single oral dose; for LD50: Litchfield and Wilcoxon; for LD0: no mortality at end of 7 days
Experimental: The doses 500, 750, 1000 and 2000 mg/Kg were administered orally. Each group consists of 5 mice. […] The survived animals were autopsied for asserting the absorption of compound through g.i.t.
The LD50 was determined using Litchfield and Wilcoxon (J. Pharmacol. Exp. Ther. 1949, 96: 99-113).

A549 cells [1] = test: In vivo evaluation on subcutaneous lung tumours in nude mice; conditions: for tumour regression: subcutaneous A549 tumours
Excerpt: Nude mice were implanted with 2×10^6 A549 cells in the right hind limb flank.

[2] = system: A549 luciferase expressing cells; test: Evaluation of lung tissue harvested from nude mice after treatment; format: in vivo; conditions: various concentrations, oral/ip routes
[3] = system: A549 luciferase expressing cells; test: Nude mice implanted with A549 luciferase expressing cells, tumor observation; format: in vivo; conditions: 42 days treatment, oral and ip routes
A549 cells [4] = test: Evaluation of ED50 from lung section and tumor regression studies; format: in vivo, nude mice; conditions: oral route, based on lung section and tumor regression studies
Experimental: The ED50 values were evaluated based on the lung section and tumor regression studies. […].

Erb B2 = test: Western blot of receptor levels in A549 cells: Erb B2; format: cell-based, human
Experimental: (§1) Levels of Erb-1, Erb-2, Erb-3, Erb-4 and VEGFR were determined by western blot analysis.

Erb B3 = test: Western blot of receptor levels in A549 cells: Erb B3; format: cell-based, human
Experimental: as §1

Erb B4 = test: Western blot of receptor levels in A549 cells: Erb B4; format: cell-based, human
Experimental: as §1

VEGFR = test: Western blot of receptor levels in A549 cells: VEGFR; format: cell-based, human
Experimental: as §1

A549 and H1299 cells = test: cells; conditions: Homo sapiens, read-out: inhibiting concentration (IC50)
Experimental: Solubilization of the cells by the addition of a detergent results in the liberation of the crystals, which are solubilized. The number of surviving cells is directly proportional to the level of the formazan product created. The color can then be quantified using a simple colorimetric assay. This assay was done using 0-1000 ng/ml concentrations of Erlotinib and the test compounds in A549 and H1299 cells.

EGFR = biological target: T1, EGFR (Homo sapiens, UniProt P00533); test: Western blot analysis of EGFR expression; format: cell-based; conditions: for concentration causing comparable inhibition of EGFR expression: H1299 or A549 cells, 72 hr
T1 construct: endogenous in cells; host or cells: H1299 or A549 cells
Excerpt: The gels were blotted onto treated nylon membranes (Biorad) and immunoprobed for EGFR, P13K and AKT.

H1299 and A549 cells = test: Matrigel invasion assay (modified Boyden chamber); format: cell-based, human; conditions: cells treated 48 hr, migration 24 h
Experimental: The in vitro invasiveness of H1299 and A549 cells in the presence of various concentrations of NRC compounds (as determined by MTT assay) was assessed using a modified Boyden chamber assay. Cells were treated with these compounds for 48 hr. 1×10^6 cells were suspended in 600 μl of serum-free medium supplemented with 0.2% BSA and placed in the upper compartment of the transwell chambers (Corning Costar Fisher Scientific cat #07-200-158, Pittsburgh Pa.) coated with matrigel (0.7 mg/ml). The lower compartment of the chamber was filled with 200 μl of serum medium and the cells were allowed to migrate for 24 h. after incubation, the cells were fixed and stained with Hema-3 and quantified as previously described (Mohanam et al. 1993). The migrated cells were quantified as percent invasion.

A549 cells [5] = test: Visualization of tumors in lung tissue (H&E sections); format: in vivo, nude mice; conditions: intrapulmonary A549, 2.5 and 20 mg/Kg, oral/ip, thirty days daily treatment
Excerpt: Nude mice were implanted by intrapulmonary injections of A549 cells. […] Thirty days after daily drug treatments, mice were sacrificed and lungs harvested. The lung tissues were fixed in 10% buffered formaldehyde, paraffin embedded and sectioned. The sections were H&E stained as per statutory protocols to visualize solid or diffuse tumors.

C#Cc1cccc(Nc2ncnc3cc(OCCOC)c(OCCOC)cc23)c1 [Erlotinib HCl, N-(3-Ethylnylphenyl)-6,7-bis(2-methoxyethoxy)-4-quinazolinamine, reference compound]
LD50 (male and female mice): 805 mg/kg (po) | LD0 (male and female mice): 500 mg/kg (po) | tumour regression (A549 cells [1]; 100 mg/Kg dose): could not induce complete tumor regression; also recorded: tumours were still present | residual tumours in harvested lungs [2]: tumours were still present | tumors at end of treatment [3]: residual tumors were still present | ED50 (A549 cells [4]; Mus musculus, A549, read-out: ED50): 22 mg/kg | Erb B2 level (Erb B2): not seen at all; also recorded: no such indication was seen | Erb B3 level (Erb B3): not seen at all; also recorded: no such indication was seen | Erb B4 level (Erb B4): not seen at all; also recorded: no such indication was seen | VEGFR level (VEGFR): not seen at all; also recorded: no such indication was seen | IC50 (A549 and H1299 cells): 0.836 µg/mL

C#Cc1cccc(Nc2ncnc3cc(OC)c(OCCCN4CCOCC4)cc23)c1 [NRC-2694, N-(3-ethylnylphenyl)-7-methoxy-6-[3-(4-morpholinyl)propoxy]-4-quinazolinamine]
LD50 (male and female mice): could not be pinpointed | LD0 (male and female mice): 2000 mg/kg (po) | level of efficacy versus erlotinib HCl (EGFR expression) (EGFR; 80 ng versus 800 ng): ten fold | concentration causing comparable inhibition of EGFR expression (EGFR): 80 ng | concentration causing comparable inhibition of EGFR expression (EGFR; value in parentheses): 190 nm | invasion (H1299 and A549 cells): significant decrease in invasion in a dose dependent manner | tumour regression (A549 cells [1]; 10 mg/Kg dose): complete regression of tumours | superiority in efficacy versus erlotinib HCl (A549 cells [1]; 10 mg/Kg versus 100 mg/Kg): ten fold | residual tumours in harvested lungs [2]: Complete regression of tumours | tumors in lung tissue sections, comparison with erlotinib HCl (A549 cells [5]): fared much better | tumors at end of treatment [3]: No tumors were observed | ED50 (A549 cells [4]): 6.3 mg/kg | Erb B2 level (Erb B2): down regulating | Erb B2 level (Erb B2; listed as NRC 2694): down regulated | Erb B3 level (Erb B3): down regulating | Erb B3 level (Erb B3; listed as NRC 2694): down regulated | Erb B4 level (Erb B4): down regulating | Erb B4 level (Erb B4; listed as NRC 2694): down regulated | VEGFR level (VEGFR): down regulating | VEGFR level (VEGFR; listed as NRC 2694): down regulated
